Measurements taken from US7855200B2, “Method for treatment of gastric ulcers and ulcers induced by aspirin” (Council of Scientific and Industrial Research, priority 2006, dated 2010).
Values joined by “and” are separate entries in the source; they are usually repeats but may differ in a detail not shown here. Equal entries are not always repeated.

What was measured:
[1] = tested on: Pylorus ligated rats; assay: Pylorus ligated ulcers; assay type: in vivo, albino rats; details: 4 hours after pylorus ligation
In short: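 Albino rats, fasted 48 h, dosed with test compound (25 mg/kg, or 50, 25, 15, 10 and 5 mg/kg) or ranitidine 50 mg/kg in 1% Tween 80 vehicle. Pylorus ligated under ether 1 h post-dose. Gastric contents collected 4 h later, centrifuged, and total acid titrated with 0.01N NaOH.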

[2] = tested on: gastric ulceration in cold restraint rats; assay: Cold restraint (stress) induced ulcers; assay type: in vivo, albino rats; parameters: Ulcer index Mean(SE): scale not given here; details: rats, 4° C. for 2 hours
In short: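 Albino rats, fasted 48 h with free water, dosed orally with compound at 25 mg/kg or at 50, 25, 15, 10 and 5 mg/kg in 1% Tween 80 vehicle. Water removed 1 h before restraint at 4° C for 2 h. Sacrificed 2 h after stress; stomachs opened along greater curvature and scored as mean ulcer index.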

## COC(=O)C1OC(Oc2cc3oc(-c4ccccc4)cc(=O)c3cc2OC)C(O)C(O)C1O (centres unmarked) [OA-5, 3,4,5-trihydroxy-6-(6-methoxy-4-oxo-2-phenyl-4-H-chromen-7-yoloxy) tetrahydro-pyran-2-carboxylicacid methyl ester]
[1]; 5 mg/kg
  Acidity Total mEg: 45.50 (±1.25) mEg
  Gastric content: 2.06 (±0.28)
  Inhibition %: 46.80%
  Ulcer index Mean(SE): 26.66 (±5.48)
  pH: 3.25 (±0.17)
[1]; 10 mg/kg
  Acidity Total mEg: 42.90 (±2.37) mEg
  Gastric content: 3.50 (±0.62)
  Inhibition %: 59.78%
  Ulcer index Mean(SE): 21.66 (±3.04)
  pH: 3.58 (±0.24)
[1]; 15 mg/kg
  Acidity Total mEg: 30.25 (±0.73) mEg
  Gastric content: 3.62 (±0.61)
  Inhibition %: 70.07%
  Ulcer index Mean(SE): 15.00 (±3.33)
  pH: 4.35 (±0.10)
[1]; 25 mg/kg
  Acidity Total mEg: 30.18 (±0.50) m Eg
  Gastric content: 2.10 (±0.34)
  Inhibition %: 75.07%
  Ulcer index Mean(SE): 12.49 (±3.74)
  pH: 5.62 (±0.19)
[1]; 50 mg/kg
  Acidity Total mEg: 32.66 (±0.62) m Eg
  Gastric content: 2.50 (±0.19)
  Inhibition %: 79.85%
  Ulcer index Mean(SE): 10.10 (±2.04)
  pH: 4.62 (±0.10)
[2]; 5 mg/kg per orally
  Inhibition %: 31.55%
  Ulcer index Mean(SE): 27.5
[2]; 10 mg/kg per orally
  Inhibition %: 41.92%
  Ulcer index Mean(SE): 23.33
[2]; 15 mg/kg per orally
  Inhibition %: 50.14%
  Ulcer index Mean(SE): 19.99
[2]; 25 mg/kg per orally
  Inhibition %: 75.45%
[2]; 25 mg/kg per orally, 25 mg/kg
  Ulcer index Mean(SE): 9.997 and 9.99
[2]; 50 mg/kg per orally
  Inhibition %: 78.22%
  Ulcer index Mean(SE): 8.75
